Data reported in the supplement of paper PMC13380429.
± gives the standard deviation of the averaged measurements.

Key:
Conditions in all cases: 72 h
U2OS [1] = assay: relative viability EC50 (midpoint between 100% and the lowest measured viability); higher = less toxic
Caco-2 [2] = assay: as above
Calu-3 [3] = assay: as above
HepG2 [4] = assay: as above
U2OS [5] = assay: cell viability relative to DMSO; higher = less toxic
Caco-2 [6] = assay: as above
Calu-3 [7] = assay: as above
HepG2 [8] = assay: as above
U2OS [9] = assay: drug sensitivity score (DSS) for viability; higher = more toxic; extreme values may be limits of the assay
Caco-2 [10] = assay: as above
Calu-3 [11] = assay: as above
HepG2 [12] = assay: as above
Vero E6 [13] = assay: cell viability relative to DMSO; higher = less toxic
Vero E6 [14] = assay: drug sensitivity score (DSS) for viability; higher = more toxic; extreme values may be limits of the assay

| SMILES | relative viability EC50 (U2OS [1]) [µM] | relative viability EC50 (Caco-2 [2]) [µM] | relative viability EC50 (Calu-3 [3]) [µM] | relative viability EC50 (HepG2 [4]) [µM] | cell viability (U2OS [5]; 1 nM) [%] | cell viability (U2OS [5]; 10 nM) [%] | cell viability (U2OS [5]; 100 nM) [%] | cell viability (U2OS [5]; 1000 nM) [%] | cell viability (U2OS [5]; 10000 nM) [%] | cell viability (Caco-2 [6]; 1 nM) [%] | cell viability (Caco-2 [6]; 10 nM) [%] | cell viability (Caco-2 [6]; 100 nM) [%] | cell viability (Caco-2 [6]; 1000 nM) [%] | cell viability (Caco-2 [6]; 10000 nM) [%] | cell viability (Calu-3 [7]; 1 nM) [%] | cell viability (Calu-3 [7]; 10 nM) [%] | cell viability (Calu-3 [7]; 100 nM) [%] | cell viability (Calu-3 [7]; 1000 nM) [%] | cell viability (Calu-3 [7]; 10000 nM) [%] | cell viability (HepG2 [8]; 1 nM) [%] | cell viability (HepG2 [8]; 10 nM) [%] | cell viability (HepG2 [8]; 100 nM) [%] | cell viability (HepG2 [8]; 1000 nM) [%] | cell viability (HepG2 [8]; 10000 nM) [%] | drug sensitivity score (U2OS [9]) | drug sensitivity score (Caco-2 [10]) | drug sensitivity score (Calu-3 [11]) | drug sensitivity score (HepG2 [12]) | cell viability (Vero E6 [13]; 1 nM) [%] | cell viability (Vero E6 [13]; 10 nM) [%] | cell viability (Vero E6 [13]; 100 nM) [%] | cell viability (Vero E6 [13]; 1000 nM) [%] | cell viability (Vero E6 [13]; 10000 nM) [%] | drug sensitivity score (Vero E6 [14]) |
| --- | --- | --- | --- | --- | --- | --- | --- | --- | --- | --- | --- | --- | --- | --- | --- | --- | --- | --- | --- | --- | --- | --- | --- | --- | --- | --- | --- | --- | --- | --- | --- | --- | --- | --- |
| CCOC(=O)[C@H](Cc1ccc([N+](=O)[O-])cc1)NC(=O)c1ccccc1 | > 10 | > 10 | > 10 | > 10 | 101 | 98.3 | 98.5 | 101 | 102 | 104 | 97.9 | 102 | 96.7 | 90.7 | 92.9 | 103 | 96.8 | 102 | 106 | 99.4 | 93.2 | 107 | 101 | 95.2 | 0 | 0 | 0 | 0 |  |  |  |  |  |  |
| CCc1cc(C(C)=O)c(O)cc1OCCCCCC(C)(C)c1nn[nH]n1 | > 10 | > 10 | > 10 | > 10 | 94 | 96.2 | 88.1 | 97.4 | 95.5 | 102 | 92.1 | 99.5 | 107 | 94.5 | 108 | 103 | 97.1 | 98 | 93.3 | 99.8 | 107 | 105 | 88.4 | 107 | 0 | 0 | 0 | 0 |  |  |  |  |  |  |
| COc1ccc(Nc2ccn(-c3ccccc3)n2)cc1 | > 10 | > 10 |  | > 10 | 95 | 100 | 94.2 | 99.5 | 96.2 | 102 | 98.5 | 90 | 97.4 | 89.4 |  |  |  |  |  | 102 | 97.2 | 97.6 | 114 | 100 | 0 | 0 |  | 0 |  |  |  |  |  |  |
| Cc1cc(Nc2cc(CN3CCOCC3)c3nc(C)c(Cc4ccc(Cl)cc4F)n3n2)n[nH]1 | 3.11 |  |  | 1.29 | 104 | 105 | 104 | 99.4 | 29.6 | 102 | 98.2 | 105 | 96.7 | 62.8 | 107 | 99.7 | 97.1 | 91 | 50.6 | 101 | 105 | 97.5 | 75.5 | 32.7 | 4 | 2.3 | 4.1 | 6.9 | 96.4 | 98 | 96.8 | 95.8 | 70.7 | 1.9 |
| NCCCCN(Cc1nc2ccccc2[nH]1)[C@H]1CCCc2cccnc21 | > 10 | > 10 | > 10 | > 10 | 106 | 100 | 97.3 | 96.6 | 98.3 | 100 | 93.3 | 97.1 | 97.2 | 104 | 98.9 | 93.1 | 96.2 | 90.4 | 89.8 | 100 | 104 | 97.6 | 105 | 82.8 | 0 | 0 | 0 | 0.2 |  |  |  |  |  |  |
| NS(=O)(=O)Nc1ncnc(OCCOc2ncc(Br)cn2)c1-c1ccc(Br)cc1 | > 10 | > 10 | > 10 | > 10 | 97.8 | 94.5 | 96.9 | 102 | 105 | 106 | 94.3 | 102 | 93.8 | 97 | 88.4 | 99.1 | 95.6 | 104 | 94.7 | 102 | 104 | 98.9 | 92.9 | 90.9 | 0 | 0 | 0 | 0 |  |  |  |  |  |  |
| Cc1cc([C@@H](C)Nc2ccccc2C(=O)O)c2nc(N3CCOCC3)cc(=O)n2c1 [AZD6482] | > 10 |  |  | > 10 | 100 | 101 | 96.1 | 99.8 | 80.8 | 93.5 | 102 | 90 | 83.6 | 57.5 | 97.7 | 105 | 94.2 | 100 | 69 | 103 | 102 | 99.9 | 85.5 | 79.7 | 0.6 | 3.9 | 1.3 | 2 | 108 | 96.5 | 89.3 | 79.8 | 67.6 | 4.1 |
| NC(=O)Nc1cc(-c2cccc(F)c2)sc1C(=O)N[C@H]1CCCNC1 [AZD7762] | 0.352 | 1.61 | 0.736 | 0.809 | 101 | 95.9 | 97.3 | 6.1 | 0.1 | 96.3 | 91.5 | 102 | 82.6 | 25 | 106 | 96.4 | 94.8 | 43.4 | 7 | 97.8 | 101 | 103 | 37.8 | 1.3 | 17.4 | 6.9 | 12 | 12.7 | 92 | 99.1 | 90.7 | 84.6 | 52.4 | 4.1 |
| O=S(=O)(c1cccc2cnccc12)N1CCNCC1 [C-1] |  | > 10 | > 10 | > 10 |  |  |  |  |  | 96.8 | 94.8 | 105 | 99.4 | 104 | 98.2 | 91.8 | 96.3 | 99.5 | 123 | 93.2 | 105 | 95 | 110 | 104 |  | 0 | 0 | 0 |  |  |  |  |  |  |
| Clc1ccc(-c2nc3sccn3c2/C=N/OCc2ccc(Cl)c(Cl)c2)cc1 [CITCO] | > 10 | > 10 | > 10 | > 10 | 96.3 | 98.7 | 99.5 | 97.6 | 94 | 107 | 98.5 | 110 | 94 | 96.5 | 92.2 | 88.4 | 93.1 | 93.6 | 92.1 | 97 | 104 | 104 | 104 | 97.9 | 0 | 0 | 0 | 0 |  |  |  |  |  |  |
| C[C@@H](NC(=O)CCc1nc2ccccc2c(=O)[nH]1)c1ccccc1 [ME0328] |  |  |  |  | 102 ± 1.1 | 98 ± 1.3 | 103 ± 1.6 | 95.8 ± 0.14 | 95.8 ± 6.4 | 97.8 ± 16 | 94 ± 1.2 | 98.8 ± 2 | 103 ± 4.3 | 93.7 ± 9.1 | 100 ± 5.4 | 112 ± 15 | 92 ± 3.1 | 99.7 ± 8.7 | 98.3 ± 3.2 | 98.65 ± 0.78 | 98.8 ± 4.7 | 100 ± 4.5 | 104 ± 1.3 |  | 0 | 0 | 0 | 0 | 93.6 ± 7.1 |  | 93.8 ± 6 | 94.2 ± 6.1 | 94.05 ± 0.071 | 0 |
| O=C(Cc1ccccc1)Nc1nc2ccc(Cl)cc2c2nc(-c3ccco3)nn12 [MRS-1220] | > 10 | > 10 | > 10 | > 10 | 98.8 | 101 | 97.2 | 104 | 96.9 | 93.7 | 100 | 99.4 | 94.1 | 101 | 104 | 98.2 | 95.3 | 94.1 | 93.5 | 96.5 | 93 | 93.5 | 95.6 | 105 | 0 | 0 | 0 | 0 |  |  |  |  |  |  |
| CCOC(=O)C1=C(C)NC(c2ccccc2)=C(C(=O)OCc2ccc([N+](=O)[O-])cc2)[C@@H]1C#Cc1ccccc1 [MRS-1334] | > 10 | > 10 | > 10 | > 10 | 104 | 95.8 | 100 | 101 | 97.9 | 99.1 | 99.7 | 92.8 | 96.8 | 91.9 | 99.2 | 97.1 | 96.8 | 95.2 | 98 | 114 | 104 | 100 | 92.6 | 89.3 | 0 | 0 | 0 | 0.1 |  |  |  |  |  |  |
| COc1cc(N2CCC(O)CC2)ccc1Nc1cc(Nc2ccccc2S(=O)(=O)C(C)C)c2cc[nH]c2n1 [Mps1-IN-1] |  |  | > 10 | 2.57 | 103 | 101 | 101 | 98.3 | 70.2 | 102 | 92.2 | 97.4 | 101 | 53.9 | 101 | 114 | 90.9 | 102 | 85.6 | 96.5 | 118 | 95.2 | 95.5 | 37.8 | 1.5 | 2.3 | 0.1 | 4.1 | 106 | 103 | 102 | 98.9 | 74 | 1.2 |
| O=C(Nc1ccccc1)N1CCC(Cc2cnc3ccccc3c2)CC1 [PF-750] | > 10 | > 10 | > 10 | > 10 | 97.2 | 92 | 96.8 | 96.5 | 97.9 | 106 | 99.4 | 94.5 | 102 | 88.3 | 89.9 | 88.1 | 114 | 95.7 | 95.9 | 96.6 | 108 | 103 | 98.1 | 93 | 0 | 0 | 0 | 0 |  |  |  |  |  |  |
| OCc1ccc(-c2ccc(-c3ccc(CO)s3)o2)s1 [RITA] | 3.25 | > 10 | > 10 | 2.51 | 95 | 96.3 | 102 | 101 | 32.4 | 99.2 | 103 | 100 | 89.4 | 77.8 | 102 | 101 | 90.6 | 103 | 106 | 107 | 110 | 88.3 | 92.4 | 4.6 | 3.6 | 1.9 | 0 | 6.5 | 101 | 103 | 103 | 102 | 68 | 1.3 |
